What was measured:
[1] = system: pqsA-GFP reporter; test: PAO1 quorum sensing reporter assay, pqsA-GFP; assay type: cell-based, Pseudomonas aeruginosa (PAO1); conditions: funalenone concentrations up to 500 μM
Procedure: (§1) Quorum sensing activity in PAO1 cells can be assessed by a the person skilled in the art, preferably by a quorum sensing reporter assay as exemplified herein. PAO1 reporters express green fluorescent protein under the control of the lasB promoter, the rhlA promoter, the pqsA promoter or a constitutive promoter, PA1/04/03. Reporter bacteria are inoculated in AB minimal media supplemented with 0.5% glucose and 0.5% casamino acids. Cultures are diluted in physiological salt solution to an OD450=0.1-0.2 before addition to AB medium with a range of concentrations of compound. The GFP fluorescence (excitation 485 nm, emission 535 nm) and absorbance (600 nm) are determined every 15 min for 15 h at 34° C. IC50 values are calculated based on the maximum slope of GFP/OD. If the IC50 on reporter lines is less than half of the IC50 on control bacteria, the compound is scored as quorum sensing inhibitor.
(§2) To test the potential of paecilomycone as quorum sensing inhibitor in more clinically relevant bacteria, the effect on P. aeruginosa (PAO1) was tested. […] To correct for potential effects on bacterial growth, the OD600 was determined in parallel with GFP fluorescence intensity and RFU/OD was plotted.

[2] = system: violacein production in C. violaceum; test: Quorum sensing assay: violacein production in C. violaceum; assay type: cell-based, Chromobacterium violaceum; conditions: funalenone up to 1 mM
Procedure: C. violaceum bacteria were grown o/n in tryptic soy broth at 27° C. The bacteria were diluted in TSB and grown until OD600=0.5-0.7. Bacteria were diluted 1:1000 and 50 μL bacterial suspension was transferred to 96-well plates containing 50 μL fungal filtrate, extract or purified compound in a range of concentrations. […] Plates were incubated for 20 h at 27° C. while shaking at 180 rpm. Plates were centrifuged for 10 min at 3000 rpm to precipitate the violacein. Supernatant was aspirated and the pellet was resuspended in 200 μL 96% ethanol. The plates were centrifuged again for 10 min at 3000 rpm and 100 μL of the supernatant containing the violacein was transferred to a new 96-well plate and the violacein production was quantified by measuring the OD562 on an ASYS expert plus microplate reader.

[3] = system: C. violaceum; test: Viability assay (resazurin) of C. violaceum in parallel to quorum sensing assay; assay type: cell-based, Chromobacterium violaceum; conditions: assays in parallel with the quorum sensing assays
Procedure: To ascertain that reduced OD562 signal is due to inhibition of quorum sensing and not merely due to reduced viability of bacteria, a viability assay may be done in parallel to the quorum sensing assay. To assess viability of bacteria, C. violaceum bacteria are grown o/n at 27° C. in TSB medium. The bacteria are diluted 1000× in TSB medium and grown until OD600=0.5-0.7. The bacteria are resuspended in TSB medium containing compound and incubated at 27° C. for 20 h. Bacteria are collected by centrifugation for 10 min at 3000 rpm. Supernatant is aspirated and resazurin (150 μg/mL in physiological salt solution) is added. Plates are incubated for another 45 min at 27° C. and fluorescence is measured by excitation at 540 nm and emission at 590 nm. If the fluorescent signal is less than 70% of the fluorescent signal of control untreated bacteria, the sample is scored as having an effect on viability of the bacteria.
C. violaceum bacteria were grown o/n in tryptic soy broth at 27° C. The bacteria were diluted in TSB and grown until OD600=0.5-0.7. […] The plates were centrifuged again for 10 min at 3000 rpm and 100 μL of the supernatant containing the violacein was transferred to a new 96-well plate and the violacein production was quantified by measuring the OD562 on an ASYS expert plus microplate reader. […]

[4] = system: lasB-GFP reporter; test: PAO1 quorum sensing reporter assay, lasB-GFP; assay type: cell-based, Pseudomonas aeruginosa (PAO1); conditions: funalenone concentrations up to 500 μM
Procedure: as §1, §2

[5] = system: WT-GFP; assay type: cell-based, Pseudomonas aeruginosa (PAO1); conditions: funalenone concentrations up to 500 μM
Procedure: as §1, §2

[6] = system: rhlA-GFP reporter; test: PAO1 quorum sensing reporter assay, rhlA-GFP; assay type: cell-based, Pseudomonas aeruginosa (PAO1); conditions: funalenone concentrations up to 500 μM
Procedure: as §1, §2

COC1=C(O)c2c(O)cc(C)c3c(O)cc(O)c(c23)C1=O [funalenone]
Effect on quorum sensing, pqsA-GFP reporter [1]: no effects on quorum sensing | Inhibition of violacein production [2]: did not inhibit violacein production | Effect on cell viability of C. violaceum [3]: did not affect cell viability | Effect on quorum sensing, lasB-GFP reporter [4]: no effects on quorum sensing | Effect on control WT-GFP reporter [5]: no effects on quorum sensing | Effect on quorum sensing, rhlA-GFP reporter [6]: no effects on quorum sensing
